Measured values from the NIST ThermoML archive (doi:10.1016/j.tca.2006.01.020).

Assay: molar heat capacity at constant pressure
Conditions: 101.33 kPa, Crystal, Small (less than 1 g) adiabatic calorimetry

[Ba+2].[O-2].[O-2].[O-2].[Zr+4] [barium zirconium(IV) oxide]
Conditions | molar heat capacity at constant pressure [J/K/mol]
1.659 K | 0.00346
1.662 K | 0.00357
1.664 K | 0.00348
1.666 K | 0.00351
1.671 K | 0.00353
1.675 K | 0.00351
1.677 K | 0.00363
1.683 K | 0.00349
1.689 K | 0.00342
1.699 K | 0.00335
1.722 K | 0.00326
1.735 K | 0.00341
1.744 K | 0.00345
1.763 K | 0.00333
2.098 K | 0.00292
2.107 K | 0.00345
2.124 K | 0.00373
2.15 K | 0.0036
2.163 K | 0.00346
2.173 K | 0.00343
2.185 K | 0.00389
2.198 K | 0.00355
2.209 K | 0.00288
2.216 K | 0.00344
2.228 K | 0.00346
2.261 K | 0.00391
2.281 K | 0.0035
2.325 K | 0.00371
2.372 K | 0.0038
2.389 K | 0.00365
2.42 K | 0.00384
2.515 K | 0.00414
2.651 K | 0.00484
2.824 K | 0.00516
2.831 K | 0.00564
2.919 K | 0.00559
2.952 K | 0.00633
3.106 K | 0.00618
3.116 K | 0.00718
3.242 K | 0.00714
3.366 K | 0.00794
3.538 K | 0.00865
3.656 K | 0.00903
3.873 K | 0.00964
3.987 K | 0.0104
4.096 K | 0.0108
4.199 K | 0.0112
4.473 K | 0.0129
4.617 K | 0.0156
4.702 K | 0.0156
4.777 K | 0.0158
4.851 K | 0.0176
4.929 K | 0.0183
5.008 K | 0.02
5.086 K | 0.019
5.165 K | 0.021
5.246 K | 0.0226
5.329 K | 0.0234
5.41 K | 0.0243
5.489 K | 0.0216
5.545 K | 0.0289
5.64 K | 0.0269
5.717 K | 0.0288
5.79 K | 0.0301
5.87 K | 0.0306
5.93 K | 0.0325
6.02 K | 0.0336
6.08 K | 0.0338
6.19 K | 0.0357
6.27 K | 0.0366
6.36 K | 0.0388
6.45 K | 0.0407
6.54 K | 0.0424
6.62 K | 0.044
6.72 K | 0.0458
6.8 K | 0.0494
6.9 K | 0.0501
6.98 K | 0.0511
7.08 K | 0.0539
7.16 K | 0.0547
7.26 K | 0.0547
7.36 K | 0.0593
7.47 K | 0.0629
7.56 K | 0.0638
7.67 K | 0.0662
7.77 K | 0.07
7.89 K | 0.0767
7.98 K | 0.076
8.1 K | 0.0841
8.2 K | 0.083
8.32 K | 0.091
8.43 K | 0.0913
8.55 K | 0.101
8.67 K | 0.102
8.8 K | 0.112
8.91 K | 0.111
9.05 K | 0.127
9.12 K | 0.121
9.26 K | 0.138
9.33 K | 0.13
9.47 K | 0.148
9.6 K | 0.144
9.75 K | 0.163
9.88 K | 0.159
10 K | 0.168
10.01 K | 0.17
10.18 K | 0.188
10.31 K | 0.186
10.47 K | 0.208
10.6 K | 0.205
10.76 K | 0.228
10.94 K | 0.235
11.09 K | 0.245
11.27 K | 0.27
11.45 K | 0.278
11.62 K | 0.29
11.8 K | 0.317
12 K | 0.341
12.15 K | 0.34
12.35 K | 0.385
12.54 K | 0.383
12.72 K | 0.416
12.92 K | 0.449
13.12 K | 0.466
13.32 K | 0.5
13.53 K | 0.54
13.73 K | 0.561
13.93 K | 0.599
14.13 K | 0.628
14.34 K | 0.692
14.54 K | 0.702
14.75 K | 0.772
14.97 K | 0.803
15.18 K | 0.858
15.39 K | 0.892
15.59 K | 0.951
15.81 K | 1.02
16.03 K | 1.06
16.24 K | 1.13
16.46 K | 1.2
16.68 K | 1.25
16.9 K | 1.32
17.12 K | 1.4
17.34 K | 1.46
17.56 K | 1.54
17.79 K | 1.63
18.03 K | 1.72
18.26 K | 1.77
18.47 K | 1.87
18.69 K | 1.97
18.92 K | 2.07
19.15 K | 2.15
19.38 K | 2.27
19.62 K | 2.37
19.86 K | 2.44
20 K | 2.564
20.07 K | 2.59
20.32 K | 2.69
20.56 K | 2.75
20.77 K | 2.91
21 K | 3.03
21.25 K | 3.1
21.47 K | 3.28
21.71 K | 3.37
21.95 K | 3.48
22.17 K | 3.66
22.41 K | 3.78
22.67 K | 3.87
22.9 K | 3.98
23.11 K | 4.17
23.34 K | 4.32
23.59 K | 4.41
23.83 K | 4.56
24.06 K | 4.76
24.31 K | 4.87
24.56 K | 4.97
24.78 K | 5.12
25 K | 5.34
25.24 K | 5.49
25.5 K | 5.6
25.74 K | 5.74
25.96 K | 5.93
26.19 K | 6.12
26.44 K | 6.29
26.7 K | 6.36
26.94 K | 6.51
27.15 K | 6.76
27.39 K | 6.91
27.68 K | 6.91
27.72 K | 7.04
28.07 K | 7.4
28.32 K | 7.57
28.59 K | 7.63
28.82 K | 7.79
29.03 K | 8.03
29.26 K | 8.25
30 K | 8.651
30.07 K | 8.73
30.34 K | 8.73
30.45 K | 8.93
31.03 K | 9.36
31.64 K | 9.8
32.28 K | 10.4
32.94 K | 10.9
33.63 K | 11.4
34.33 K | 11.9
35.05 K | 12.4
35.78 K | 13
36.53 K | 13.5
37.28 K | 14.1
38.03 K | 14.7
38.8 K | 15.3
39.58 K | 15.9
40 K | 16.19
40.37 K | 16.4
41.18 K | 17.1
42 K | 17.7
42.84 K | 18.3
43.69 K | 19
44.56 K | 19.6
45.45 K | 20.2
46.36 K | 21
47.29 K | 21.6
48.24 K | 22.3
49.21 K | 23
50 K | 23.59
50.25 K | 23.7
51.26 K | 24.4
52.27 K | 25.2
53.27 K | 25.9
54.27 K | 26.6
55.27 K | 27.3
56.27 K | 28.1
57.27 K | 28.8
58.26 K | 29.5
59.25 K | 30.2
60 K | 30.79
60.25 K | 31
61.24 K | 31.6
62.3 K | 32.5
63.25 K | 33.2
64.23 K | 33.8
65.21 K | 34.5
66.2 K | 35.2
67.19 K | 35.9
68.19 K | 36.2
69.19 K | 36.9
70 K | 37.33
71.18 K | 38.3
72.18 K | 38.8
73.19 K | 39.5
74.19 K | 40
75.18 K | 40.7
76.18 K | 41.3
77.18 K | 42
78.18 K | 42.5
79.18 K | 43.1
80 K | 43.22
80.18 K | 43.6
81.18 K | 44.3
82.18 K | 44.7
83.18 K | 45.1
84.17 K | 45.7
85.17 K | 46.3
86.17 K | 46.7
87.17 K | 47.2
87.74 K | 46.8
89.5 K | 48.5
90 K | 48.58
91.29 K | 49.3
93.12 K | 50.1
94.99 K | 51.3
96.9 K | 52.1
98.84 K | 52.7
100 K | 53.49
100.82 K | 53.7
102.81 K | 54.6
104.8 K | 55.6
106.79 K | 56.6
108.78 K | 57.5
110.77 K | 58.4
112.76 K | 59.4
114.75 K | 60.3
116.74 K | 61.2
118.72 K | 62
120 K | 62.3
120.69 K | 62.8
122.66 K | 63.7
124.65 K | 64.5
126.64 K | 65.3
128.63 K | 66.1
130.62 K | 66.8
132.27 K | 67.5
133.6 K | 68
134.94 K | 68.5
136.28 K | 69
137.64 K | 69.5
139.02 K | 70
140 K | 70.04
140.41 K | 70.1
141.81 K | 70.6
143.23 K | 71.1
144.66 K | 71.7
146.11 K | 72.2
147.57 K | 72.7
149.04 K | 73.2
150.53 K | 73.9
152.03 K | 74.3
153.55 K | 74.9
155.09 K | 75.3
156.64 K | 75.9
158.2 K | 76.3
159.79 K | 76.9
160 K | 76.91
161.38 K | 77.3
163 K | 77.9
164.63 K | 78.4
166.26 K | 78.9
167.93 K | 79.4
169.61 K | 79.9
171.3 K | 80.4
173.01 K | 81
174.74 K | 81.4
176.49 K | 82
178.25 K | 82.3
180 K | 82.99
180.03 K | 83
181.83 K | 83.5
183.65 K | 84.1
185.48 K | 84.7
187.34 K | 85.1
189.21 K | 85.5
191.1 K | 86.2
193 K | 86.7
194.93 K | 87
196.88 K | 87.9
198.84 K | 88
200 K | 88.29
200.83 K | 88.7
202.81 K | 89
204.8 K | 89.7
206.78 K | 90.5
208.76 K | 90.8
210.75 K | 91.3
212.73 K | 92.4
214.71 K | 91.7
216.7 K | 92.1
218.69 K | 92.5
220 K | 92.87
220.66 K | 93
222.65 K | 93.4
224.62 K | 94
226.6 K | 94.3
228.58 K | 94.9
230.56 K | 95.7
232.54 K | 95.8
234.52 K | 95.9
236.49 K | 96.5
238.47 K | 96.6
240 K | 96.81
240.44 K | 97.1
242.41 K | 97.6
244.39 K | 97.6
246.36 K | 98.4
248.33 K | 98.2
250.31 K | 98.9
252.27 K | 99.4
254.25 K | 99.7
256.22 K | 99.7
258.19 K | 99.8
260 K | 100.3
260.16 K | 100.3
262.12 K | 100.7
264.08 K | 100.7
266.04 K | 101.8
268.01 K | 102.2
269.99 K | 101.6
271.94 K | 102.6
273.9 K | 103
275.86 K | 103.2
277.83 K | 103.3
279.79 K | 103.8
280 K | 103.7
281.74 K | 104.6
283.71 K | 105.2
285.68 K | 105
287.63 K | 105
289.59 K | 105.2
291.54 K | 107
293.51 K | 106.2
295.49 K | 107.4
297.42 K | 106.6
298.15 K | 107
299.39 K | 106.6
300 K | 107.4
301.32 K | 107.9
